Read-outs that look alike come from different tables or passages of the source.
How the values were obtained:
[1] = system: 229E human corona virus (hCoV); test: 229E Cellular Assay (MRC5), live virus assay, ATPlite; type: cell-based, hCoV-229E; details: read-out: EC50 (229E)
[2] = biological target: SARS-CoV-2 3CL-protease (Severe acute respiratory syndrome coronavirus 2 (2019-nCoV) (SARS-CoV-2), UniProt P0DTD1); test: biochemical
[3] = in vitro; details: African green monkey
[4] = system: SARS-CoV-2 USA-WA1/2020; test: SARS-CoV-2 Cellular Assay (Vero 76), inhibition of CPE, neutral red; type: cell-based; details: Severe acute respiratory syndrome coronavirus 2, 144 h; Vero 76 cells infected with SARS-CoV-2 USA-WA1/2020, day 6, neutral red CPE
[5] = Human coronavirus 229E, MRC5, 144 h, MRC-5 cells, hCoV-229E MOI 0.05, 6 days, ATPlite
[6] = recombinant SARS-CoV-2 3CL-protease 10 nM, 30 min preincubation, read-out: FRET IC50

CC(C)C[C@H]1C(=O)N2C[C@]3(C[C@H]2C#N)C(=O)Nc2ccc(cc23)CCCCCCN1C(=O)c1cc2c(F)cc(F)cc2[nH]1 [Example 8]
EC50 [1, 5]: 100 to 1000 nM | IC50 [2, 6]: 100 to 1000 nM

CC(C)C[C@H]1C(=O)N2C[C@]3(C[C@H]2C#N)C(=O)Nc2ccc(cc23)CCCCCN1C(=O)c1nnn(-c2ccccc2)n1 [Example 11]
EC50 [1, 5]: 100 to 1000 nM | IC50 [2, 6]: < 100 nM

CCCC[C@H]1C(=O)N2C[C@]3(C[C@H]2C#N)C(=O)Nc2ccc(cc23)CCCCCN1C(=O)c1cc2c(F)cc(F)c(F)c2[nH]1 [Example 19]
EC50 [1, 5]: < 100 nM | IC50 [2, 6]: < 100 nM

CC(C)C[C@H]1C(=O)N2C[C@]3(C[C@H]2C#N)C(=O)Nc2ccc(cc23)CCCCCN1C(=O)c1cnn(-c2ccc(F)cc2F)c1 [Example 23]
EC50 [1, 5]: < 100 nM | IC50 [2, 6]: < 100 nM

CC(C)C[C@H]1C(=O)N2C[C@]3(C[C@H]2C#N)C(=O)Nc2ccc(cc23)CCCCCN1C(=O)c1cn(C2CCC2)nn1 [Example 12]
EC50 [1, 5]: < 100 nM | IC50 [2, 6]: < 100 nM

CCCC[C@H]1C(=O)N2C[C@]3(C[C@H]2C#N)C(=O)Nc2ccc(cc23)CCCCCN1C(=O)c1cn(-c2cc(F)c(F)cc2F)nn1 [Example 16]
EC50 [1, 5]: < 100 nM | IC50 [2, 6]: < 100 nM

CC(C)C[C@H]1C(=O)N2C[C@]3(C[C@H]2C#N)C(=O)Nc2ccc(cc23)CCCCCN1C(=O)OCc1ccccc1 [Example 2]
EC50 [1, 5]: 100 to 1000 nM | IC50 [2, 6]: < 100 nM

CC(C)(C)C[C@H]1C(=O)N2C[C@]3(C[C@H]2C#N)C(=O)Nc2ccc(cc23)CCCCCN1C(=O)c1cc2c(F)cc(F)cc2[nH]1 [Example 20]
EC50 [1, 5]: < 100 nM | IC50 [2, 6]: < 100 nM

CC(C)C[C@H]1C(=O)N2C[C@]3(C[C@H]2C#N)C(=O)Nc2ccc(cc23)C=CCCCN1C(=O)OCc1ccccc1 [Example 1]
EC50 ([1]; MRC-5 cells, hCoV-229E MOI 0.05, 6 days, ATPlite): 100 to 1000 nM | IC50 [2, 6]: < 100 nM

CC(C)C[C@H]1C(=O)N2C[C@]3(C[C@H]2C#N)C(=O)Nc2ccc(cc23)OCCCCN1C(=O)C(=O)NC1(c2ccc(F)cc2F)CC1 [Example 29]
IC50 [2, 6]: < 100 nM

CC(C)C[C@H]1C(=O)N2C[C@]3(C[C@H]2C#N)C(=O)Nc2ccc(cc23)C(=O)CCCCN1C(=O)c1cc2c(F)cc(F)cc2[nH]1 [Example 27]
EC50 [1, 5]: < 100 nM | IC50 [2, 6]: < 100 nM

CCCC[C@H]1C(=O)N2C[C@]3(C[C@H]2C#N)C(=O)Nc2ccc(cc23)CCCCCN1C(=O)c1cc2c(F)cc(F)cc2[nH]1 [Example 15]
EC50 [1, 5]: < 100 nM | IC50 [2, 6]: < 100 nM

CC(C)C[C@H]1C(=O)N2C[C@]3(C[C@H]2C#N)C(=O)Nc2ccc(cc23)OCCCCN1C(=O)c1cc2c(F)cc(F)cc2[nH]1 [Example 28]
EC50 [1, 5]: < 100 nM | IC50 [2, 6]: < 100 nM

CC(C)C[C@H]1C(=O)N2C[C@]3(C[C@H]2C#N)C(=O)Nc2ccc(cc23)CCCCCN1C(=O)c1cc2ccc(C(F)(F)F)cc2[nH]1 [Example 6]
EC50 [1, 5]: < 100 nM | IC50 [2, 6]: 100 to 1000 nM

CC(C)C[C@H]1C(=O)N2C[C@]3(C[C@H]2C#N)C(=O)Nc2ccc(cc23)CCCCCN1C(=O)c1cc2c(F)cc(F)cc2[nH]1 [Example 4]
CC50 [3]: 1000 to 50000 nM | EC50 [4]: < 1000 nM | EC50 [1, 5]: < 100 nM | IC50 [2, 6]: < 100 nM

CC(C)C[C@H]1C(=O)N2C[C@]3(C[C@H]2C#N)C(=O)Nc2ccc(cc23)CCCCCN1C(=O)c1cn(C2CC2)nn1 [Example 14]
CC50 [3]: 1000 to 50000 nM | EC50 [4]: < 1000 nM | EC50 [1, 5]: < 100 nM | IC50 [2, 6]: < 100 nM

N#C[C@@H]1C[C@]23CN1C(=O)[C@H](Cc1ccccc1)N(C(=O)c1cc4c(F)cc(F)cc4[nH]1)CCCCCc1ccc(c2c1)NC3=O [Example 9]
CC50 [3]: 1000 to 50000 nM | EC50 [4]: < 1000 nM | EC50 [1, 5]: < 100 nM | IC50 [2, 6]: < 100 nM

CC(C)C[C@H]1C(=O)N2C[C@]3(C[C@H]2C#N)C(=O)Nc2ccc(cc23)CCCCCN1C(=O)c1cnn(C(C)(C)C)c1 [Example 17]
EC50 [1, 5]: < 100 nM | IC50 [2, 6]: < 100 nM

CC(C)C[C@H]1C(=O)N2C[C@]3(C[C@H]2C#N)C(=O)Nc2ccc(cc23)CCCCCN1C(=O)c1cnn(-c2ccc(C(F)(F)F)cc2)c1 [Example 18]
EC50 [1, 5]: < 100 nM | IC50 [2, 6]: < 100 nM

CC(C)C[C@H]1C(=O)N2C[C@]3(C[C@H]2C#N)C(=O)Nc2ccc(cc23)/C=C\CCN1C(=O)OCc1ccccc1 [Example 3]
EC50 ([1]; Human coronavirus 229E, MRC5, 144 h): 100 to 1000 nM | IC50 [2, 6]: < 100 nM

CC(C)C[C@H]1C(=O)N2C[C@]3(C[C@H]2C#N)C(=O)Nc2ccc(cc23)CCCCCN1C(=O)c1cnn(-c2ccccc2Cl)c1 [Example 22]
EC50 [1, 5]: < 100 nM | IC50 [2, 6]: < 100 nM

N#C[C@@H]1C[C@]23CN1C(=O)[C@H](Cc1ccccc1)N(C(=O)c1cn(-c4ccc(F)cc4)nn1)CCCCCc1ccc(c2c1)NC3=O [Example 10]
CC50 [3]: 1000 to 50000 nM | EC50 [4]: < 1000 nM | IC50 [2, 6]: < 100 nM

CC(C)C[C@H]1C(=O)N2C[C@]3(C[C@H]2C#N)C(=O)Nc2ccc(cc23)CCCCCN1C(=O)c1cnn(-c2ccc(Cl)cc2Cl)c1 [Example 25]
IC50 [2, 6]: < 100 nM

CC(C)C[C@H]1C(=O)N2C[C@]3(C[C@H]2C#N)C(=O)Nc2ccc(cc23)CCCCCN1C(=O)c1nnc(-c2ccccc2)[nH]1 [Example 13]
EC50 [1, 5]: 100 to 1000 nM | IC50 [2]: 100 to 1000 nM

CC(C)C[C@H]1C(=O)N2C[C@]3(C[C@H]2C#N)C(=O)Nc2ccc(cc23)CCCCCN1C(=O)C(=O)NC1(c2ccc(F)cc2F)CC1 [Example 24]
EC50 [1, 5]: < 100 nM | IC50 [2, 6]: < 100 nM

CC(C)C[C@H]1C(=O)N2C[C@]3(C[C@H]2C#N)C(=O)Nc2ccc(cc23)CCCCCN1C(=O)c1cc2c(F)cc(F)c(F)c2[nH]1 [Example 5]
CC50 [3]: 1000 to 50000 nM | EC50 [4]: < 1000 nM | EC50 [1, 5]: < 100 nM | IC50 [2, 6]: < 100 nM

CC(C)C[C@H]1C(=O)N2C[C@]3(C[C@H]2C#N)C(=O)Nc2ccc(cc23)CCCCCN1C(=O)c1cnn(-c2ccccc2C(F)(F)F)c1 [Example 21]
EC50 [1, 5]: < 100 nM | IC50 [2, 6]: < 100 nM

CC(C)C[C@H]1C(=O)N2C[C@]3(C[C@H]2C#N)C(=O)Nc2ccc(cc23)C(O)CCCCN1C(=O)c1cc2c(F)cc(F)cc2[nH]1 (stereo partly shown) [Example 26]
EC50 [1, 5]: < 100 nM | IC50 [2, 6]: < 100 nM

CC(C)C[C@H]1C(=O)N2C[C@]3(C[C@H]2C#N)C(=O)Nc2ccc(cc23)CCCCCN1C(=O)c1cn(-c2ccccc2)nn1 [Example 7]
CC50 [3]: 1000 to 50000 nM | EC50 [4]: < 1000 nM | EC50 [1, 5]: < 100 nM | IC50 [2, 6]: < 100 nM

From US12398147B2, “Macrocyclic spiropyrrolidine derived antiviral agents” (Enanta Pharmaceuticals, Inc., priority 2021, dated 2025)
